Series [1] can be described thus: Metabolic Stability Study, liver microsome incubation (mouse). Type of series: in vitro ADME. As to conditions: mouse liver microsomes 0.5 mg/mL, 1 μM compound, NADPH; for half-life at 1 μM: NA^# = very stable, beyond the detection limits, read-out: T1/2 (min) mouse; for microsomal CLint at 1 μM: read-out: CLint (μL × min^−1 × mg^−1) mouse. A digest of the protocol: (§1)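 Test compounds (1 μM) incubated at 37° C with 0.5 mg/mL liver microsomes plus NADPH regenerating system; samples quenched at 0, 30 and 60 min. Parent loss measured by LC-MS/MS, giving CLint and T1/2, with CLint normalised to microsomal protein concentration.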
For orientation: Liver microsomes are vesicles of endoplasmic reticulum, rich in cytochrome P450 enzymes.

Series [2] is described as follows: Metabolic Stability Study, liver microsome incubation (human). The format is in vitro ADME. The conditions noted are these: human liver microsomes 0.5 mg/mL, 1 μM compound, NADPH; for half-life at 1 μM: NA^# = very stable, beyond the detection limits, read-out: T1/2 (min) Human; for microsomal CLint at 1 μM: read-out: CLint (μL × min^−1 × mg^−1) Human. A digest of the protocol:
as §1

Series [3] concerns RS4;11 (BCL-2 dependent acute lymphoblastic leukemia cell line). As to the kind of experiment: RS4;11 Cell Proliferation Assay. The conditions noted are these: Homo sapiens, RS4;11 cells, read-out: Cellular proliferation assay (IC50, nM) RS4. The format is cell-based. Summed up:
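Viability measured via CellTiter-Glo luminescence after a 48 h, 37 °C exposure to compounds (10 points, highest 1 μM). Seeding was 50,000 RS4;11 cells per well in 10% FBS RPMI-1640; IC50 given as mean.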

Series [4] has as its target recombinant human Bcl-2 D103Y protein (Homo sapiens (Human), UniProt P10415, D103Y). As to the kind of experiment: Bcl-2-D103Y Biochemical Assay (TR-FRET). As to conditions: for IC50: TR-FRET, FITC labeled Bak peptide; for Ratio of Bcl-2 D103Y/Bcl-2 WT: ratio of IC50; for ratio of Bcl-2 D103Y/Bcl-2 wt, compared with F91b in WO2019210828: comparison in words. The format is binding. A digest of the protocol: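 Compounds titrated against the Bcl-2 D103Y–ligand interaction; inhibition derived from the TR-FRET emission ratio 490 nm/520 nm after 337 nm excitation. Four-parameter logistic fitting gave IC50.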
(TR-FRET usually uses a lanthanide donor and a delayed reading to cut background.)

Series [5] has as its target Recombinant human Bcl-2 protein (Homo sapiens (Human), UniProt P10415). Put plainly: Bcl-2 TR-FRET Assay. Type of series: binding. A digest of the protocol:
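TR-FRET read (337 nm excitation, 520/490 nm emission) after 1 h with 0.5 nM FITC-labeled Bak peptide and Tb-cryptate anti-6His antibody. Bcl-2 at 0.05 nM had been pre-incubated 0.5 h with compound. IC50 fitted by four-parameter logistic equation.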

The test system of series [6] is recombinant human Bcl-2-G101V protein. As to the kind of experiment: Bcl-2-G101V TR-FRET Assay. The format is binding. The conditions noted are these: for Ratio of Bcl-2 G101V/WT: ratio of biochemical IC50 Bcl-2 G101V / Bcl-2 WT; for ratio of IC50 of Bcl-2 G101V/Bcl-2 wt, compared with Example F132b in WO2019210828 and ABT-199 (venetoclax): comparison in words. Summed up:
(§2)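 Compounds were titrated at increasing concentrations against the Bcl-2-G101V–ligand interaction. TR-FRET signals were then read (ex 337 nm; em 490/520 nm). Percent inhibition was derived from the 490-to-520 nm ratio, and IC50 from a four-parameter logistic equation.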

In series [7] the target is recombinant human Bcl-2-G101V protein (Homo sapiens (Human), UniProt P10415, G101V). Put plainly: Bcl-2-G101V TR-FRET Assay. Type of series: binding. The conditions noted are these: Bcl-2 G101V mutant, TR-FRET; read-out: Biochemical assay (IC50, nM) Bcl-2 G101V. Summed up:
as §2

[8] abbreviates: Bcl-2 wild type, TR-FRET, read-out: Biochemical assay (IC50, nM) Bcl-2 WT.
Setting [9] is: wild type Bcl-2, unit inferred, read-out: Bcl-2 WT.

Like-named read-outs stand apart in the source and are kept apart here.

Regarding `CC(C)c1ccccc1[C@@H]1CN(Cc2cccc3c2OCCO3)CCN1C1CC2(CCN(c3ccc(C(=O)NS(=O)(=O)c4ccc(NC[C@H]5CC[C@](C)(O)CC5)c([N+](=O)[O-])c4)c(Oc4cnc5[nH]ccc5c4)c3)CC2)C1` [Example 79a, 2-((1H-pyrrolo[2,3-b]pyridin-5-yl)oxy)-4-(2-(R-4-((2,3-dihydrobenzo [b][1,4]dioxin-5-yl)methyl)-2-(2-isopropylphenyl)piperazin-1-yl)-7-azaspiro[3.5]nonan-7-yl)-N-((4-((((1r,4r)-4-hydroxy-4-methylcyclohexyl)methyl)amino)-3-nitrophenyl)sulfonyl)benzamide], the half-life at 1 μM came out at 124 min in series [1] and 253 min in series [2]. In addition, the microsomal CLint at 1 μM in series [1] was 11.2 µL/min/mg; in series [2] it was 5.5 µL/min/mg. Besides, the IC50 in series [3] came out at 0.104 nM; in series [4], 0.2 nM; in series [5] (setting [8]), 0.11 nM; in series [5] (setting [9]) it was 0.11 nM; in series [7] it was 0.25 nM. Moreover, in series [4], the “Ratio of Bcl-2 D103Y/Bcl-2 WT” value was determined as 1.9. For the same compound, the “Ratio of Bcl-2 G101V/WT” value in series [6] turned out to be 2.4.

In the case of `COc1ccc(CN2CCN(C3CC4(CCN(c5ccc(C(=O)NS(=O)(=O)c6ccc(NC[C@H]7CC[C@](C)(O)CC7)c([N+](=O)[O-])c6)c(Oc6cnc7[nH]cc(F)c7c6)c5)CC4)C3)[C@H](c3ccccc3C(C)C)C2)cc1OC` [Example 127, 4-(2-((R)-4-(3,4-dimethoxybenzyl)-2-(2-isopropylphenyl)piperazin-1-yl)-7-azaspiro[3.5]nonan-7-yl)-2-((3-fluoro-1H-pyrrolo[2,3-b]pyridin-5-yl)oxy)-N-((4-((((1r,4r)-4-hydroxy-4-methylcyclohexyl)methyl)amino)-3-nitrophenyl)sulfonyl)benzamide], in series [1], the half-life at 1 μM amounted to 182 min. The microsomal CLint at 1 μM in series [1] was 7.63 µL/min/mg; in series [2], under 1 µL/min/mg. Moreover, the IC50 in series [3] was 0.167 nM; in series [4] it was 0.11 nM; in series [5] (setting [8]) it was 0.071 nM; in series [5] (setting [9]), 0.1 nM; in series [7], 0.13 nM. For the same compound, in series [4], the “ratio of Bcl-2 D103Y/Bcl-2 wt, compared with F91b in WO2019210828” value is “significantly lower”. Moreover, in series [4], the “Ratio of Bcl-2 D103Y/Bcl-2 WT” value was determined as 1. Moreover, the “ratio of IC50 of Bcl-2 G101V/Bcl-2 wt, compared with Example F132b in WO2019210828 and ABT-199 (venetoclax)” value (“ratio of IC50 of Bcl-2 G101V/Bcl-2 wt” for short) in series [6] is reported as “much lower”. In addition, in series [6], the “Ratio of Bcl-2 G101V/WT” value is 1.8.

`COc1ccc(CN2CCN(C3CC4(C3)CN(c3ccc(C(=O)NS(=O)(=O)c5ccc(NC[C@H]6CC[C@](C)(O)CC6)c([N+](=O)[O-])c5)c(Oc5cnc6[nH]cc(F)c6c5)c3)C4)[C@H](c3ccccc3C(C)C)C2)cc1OC` [Example 141a, 4-(6-((R)-4-(3,4-dimethoxybenzyl)-2-(2-isopropylphenyl)piperazin-1-yl)-2-azaspiro[3.3]heptan-2-yl)-2-((3-fluoro-1H-pyrrolo[2,3-b]pyridin-5-yl)oxy)-N-((4-((((1r,4r)-4-hydroxy-4-methylcyclohexyl)methyl)amino)-3-nitrophenyl)sulfonyl)benzamide]: the half-life at 1 μM in series [1] came to 18100 min; in series [2], 343 min. Besides, the microsomal CLint at 1 μM in series [1] was 0.07 µL/min/mg; in series [2] it was 4 µL/min/mg. In addition, the IC50 stood at 0.166 nM in series [3]; 0.072 nM in series [4]; 0.054 nM in series [5] (setting [8]); 0.054 nM in series [5] (setting [9]); 0.13 nM in series [7]. The “ratio of Bcl-2 D103Y/Bcl-2 wt, compared with F91b in WO2019210828” value in series [4] was “significantly lower”. For the same compound, the “Ratio of Bcl-2 D103Y/Bcl-2 WT” value in series [4] is 1.3. Further, in series [6], the “ratio of IC50 of Bcl-2 G101V/Bcl-2 wt” value was “much lower”. Moreover, in series [6], the “Ratio of Bcl-2 G101V/WT” value was determined as 2.5.

With `COc1ccc(CN2CCN(C3CC4(C3)CN(c3ccc(C(=O)NS(=O)(=O)c5ccc(NC[C@H]6CC[C@](C)(O)CC6)c([N+](=O)[O-])c5)c(Oc5cnc6[nH]ccc6c5)c3)C4)[C@H](c3ccccc3C(C)C)C2)cc1OC` [Example 145, 2-((1H-pyrrolo[2,3-b]pyridin-5-yl)oxy)-4-(6-((R)-4-(3,4-dimethoxybenzyl)-2-(2-isopropylphenyl)piperazin-1-yl)-2-azaspiro[3.3]heptan-2-yl)-N-((4-((((1r,4r)-4-hydroxy-4-methylcyclohexyl)methyl)amino)-3-nitrophenyl)sulfonyl)benzamide], the half-life at 1 μM is 196 min in series [1] and 970 min in series [2]. Moreover, the microsomal CLint at 1 μM in series [1] came to 7.1 µL/min/mg; in series [2], 1.4 µL/min/mg. Besides, the IC50 in series [3] is 0.104 nM; in series [4] it was 0.045 nM; in series [5] (setting [8]), 0.028 nM; in series [5] (setting [9]) it was 0.028 nM; in series [7], 0.084 nM. Moreover, the “ratio of Bcl-2 D103Y/Bcl-2 wt, compared with F91b in WO2019210828” value in series [4] is “significantly lower”. Also, in series [4], the “Ratio of Bcl-2 D103Y/Bcl-2 WT” value is 1.6. Also, the “ratio of IC50 of Bcl-2 G101V/Bcl-2 wt” value in series [6] is “much lower”. Besides, in series [6], the “Ratio of Bcl-2 G101V/WT” value was found to be 3.

As to `COc1ccc(CN2CCN(C3CC4(C3)CN(c3ccc(C(=O)NS(=O)(=O)c5ccc(NC[C@H]6CC[C@](C)(O)CC6)c([N+](=O)[O-])c5)c(Oc5cnc6[nH]ccc6c5)c3)C4)[C@H](c3ccccc3C(C)C)C2)cc1` [Example 147, 2-((1H-pyrrolo[2,3-b]pyridin-5-yl)oxy)-N-((4-((((1r,4r)-4-hydroxy-4-methylcyclohexyl)methyl)amino)-3-nitrophenyl)sulfonyl)-4-(6-((R)-2-(2-isopropylphenyl)-4-(4-methoxybenzyl)piperazin-1-yl)-2-azaspiro[3.3]heptan-2-yl) benzamide], in series [1], the half-life at 1 μM was 301 min. Further, the microsomal CLint at 1 μM in series [1] was 4.6 µL/min/mg; in series [2], under 1 µL/min/mg. For the same compound, the IC50 amounted to 0.14 nM in series [3]; 0.086 nM in series [4]; 0.054 nM in series [5] (setting [8]); 0.054 nM in series [5] (setting [9]); 0.17 nM in series [7]. Also, in series [4], the “Ratio of Bcl-2 D103Y/Bcl-2 WT” value is on record as 1.6. For the same compound, the “Ratio of Bcl-2 G101V/WT” value in series [6] is recorded as 3.1.

Consider `[2H]C([2H])([2H])Oc1ccc(CN2CCN(C3CC4(CCN(c5ccc(C(=O)NS(=O)(=O)c6ccc(NC[C@H]7CC[C@](C)(O)CC7)c([N+](=O)[O-])c6)c(Oc6cnc7[nH]cc(F)c7c6)c5)CC4)C3)[C@H](c3ccccc3C(C)C)C2)cc1OC([2H])([2H])[2H]` [Example 198, 4-(2-((R)-4-(3,4-bis(methoxy-d3)benzyl)-2-(2-isopropylphenyl)piperazin-1-yl)-7-azaspiro[3.5]nonan-7-yl)-2-((3-fluoro-1H-pyrrolo[2,3-b]pyridin-5-yl)oxy)-N-((4-((((1r,4r)-4-hydroxy-4-methylcyclohexyl)methyl)amino)-3-nitrophenyl)sulfonyl)benzamide], for which the half-life at 1 μM was 222 min in series [1] and 247 min in series [2]. Also, the microsomal CLint at 1 μM was 6.3 µL/min/mg in series [1] and 5.6 µL/min/mg in series [2]. Further, the IC50 was found to be 0.12 nM in series [3]; 0.08 nM in series [4]; 0.072 nM in series [5] (setting [8]); 0.072 nM in series [5] (setting [9]); 0.17 nM in series [7]. Further, the “Ratio of Bcl-2 D103Y/Bcl-2 WT” value in series [4] amounted to 1.1. Further, in series [6], the “Ratio of Bcl-2 G101V/WT” value is 2.4.
